{
  "source": "patent US11072588B2",
  "about": "“Barbituric acid derivatives comprising cationic and lipophilic groups” (UNIVERSITETET I TROMSØ—NORGES ARKTISKE UNIVERSITET, priority 2017, dated 2021)",
  "key": {"S. epidermidis": {"system": "S. epidermidis", "assay": "Anti-biofilm activity (inhibition of biofilm formation)", "type": "cell-based", "conditions": "Staphylococcus epidermidis, read-out: Anti-biofilm IC50"}, "[1]": {"system": "human metastatic melanoma (A2058, ATCC CRL-11147) cells", "assay": "Anti-cancer activity against A2058 cells", "type": "cell-based", "conditions": "A2058, read-out: Anti-cancer IC50", "in_short": "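A2058 melanoma cells seeded at 2,000/well overnight, then exposed to a concentration range in serum-free MEM (gentamycin, NEAA, pyruvate, glutamine) for 24 h (cytotoxicity stated as after 72 h exposure). MTS-type tetrazolium reagent added for 1 h; absorbance at 485 nm; % survival versus medium and Triton X-100 controls.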"}, "S. aureus IHT 99040": {"system": "S. aureus IHT 99040", "assay": "MIC, multi-resistant clinical isolate", "type": "cell-based, Staphylococcus aureus", "protocol": "(§1) Working solutions of the test derivatives were prepared with up to 100% DMSO and stored at −20° C. If necessary, the solutions were heated to 40-80° C. before testing to facilitate complete dissolution. Double-distilled water was used in all dilutions prepared. […] A microdilution susceptibility test was used for MIC determination according to Clinical and Laboratory Standards Institute, “Methods for Dilution Antimicrobial Sisceptibility Tests for Bacteria That Graw Aerobically”, Approved Standard M07-A9, edition 2012, with modifications as described by Igumnova et al (Bioorg Med Chem, 2016, 24 (22), 5884-5894).\n(§2) Briefly, the bacterial inoculum was adjusted to approximately 2.5-3×10^4 cells/mL in Mueller-Hinton broth (MHB, Difco Laboratories, USA), and incubated in a ratio of 1:1 with test derivatives in polystyrene 96-well flat-bottom microplates (NUNC, Roskilde, Denmark). Positive growth control (without test derivatives) and negative control (without bacteria) were included. The reference antibiotic was oxytetracycline hydrochloride (Sigma Aldrich, Saint Louis, Mo., USA). The microplates were incubated in an EnVision microplate reader (Perkin-Elmer, Turku, Finland) placed in an incubator set to 35° C. for 48 h. The MIC value was defined as the lowest concentration of derivative resulting in no bacterial growth as determined by OD600 measurement. All derivatives were tested in three parallels.\n(§3) The MIC was determined as explained above with some exceptions; working solutions of test derivatives were prepared from concentrated DMSO stocks stored at room temperature, the density of the bacterial inoculum was increased 40× to 1-1.2×10^6 cells/mL, enterococci were incubated in Brain Heart Infusion broth (BHIB, Difco Laboratories, USA), the microplates were incubated for 24 h, and the derivatives were tested in four parallels."}, "S. aureus N315": {"system": "S. aureus N315", "assay": "MIC, multi-resistant clinical isolate", "type": "cell-based, Staphylococcus aureus", "protocol": "as §1, §2, §3"}, "S. aureus strain 85/2082": {"system": "S. aureus strain 85/2082", "assay": "MIC, multi-resistant clinical isolate", "type": "cell-based, Staphylococcus aureus", "protocol": "as §1, §2, §3"}, "S. aureus strain WIS": {"system": "S. aureus strain WIS", "assay": "MIC, multi-resistant clinical isolate", "type": "cell-based, Staphylococcus aureus", "protocol": "as §1, §2, §3"}, "S. aureus NCTC 10442": {"system": "S. aureus NCTC 10442", "assay": "MIC, multi-resistant clinical isolate", "type": "cell-based, Staphylococcus aureus", "protocol": "as §1, §2, §3"}, "[2]": {"assay": "Determination of haemolytic activity", "type": "cell-based", "conditions": "human red blood cells (washed, from heparinized fresh blood); human RBCs, 1 h, 37° C.; read-out: RBC: haemolytic activity against human RBCs (EC50)", "protocol": "Hemolysis was determined using a heparinized fraction (1000 IU/mL) of freshly drawn blood. Blood collected in EDTA containing test tubes (Vacutest®, KIMA, Arzergrande, Italy) was used for determination of the hematocrit (hct). The heparinized blood was washed 3× with pre-warmed PBS and adjusted to a final hct of 4%. Derivatives in DMSO (50 mM) were added to a 96-well polypropylene V-bottom plate (NUNC, Fisher Scientific, Oslo, Norway) and serially diluted. The test concentration range was 500-4 μM with DMSO contents ≤1%. A solution of 1% triton X-100 was used as positive control for 100% hemolysis. As negative control a solution of 1% DMSO in PBS buffer was included. No signs of DMSO toxicity were detected. RBCs (1% v/v final concentration) were added to the well plate and incubated at 37° C. and 800 rpm for 1 h. After centrifugation (5 min, 3000 g), 100 μL of each well were transferred to a 96-well flat bottom plate and absorbance was measured at 545 nm with a microplate reader (VersaMax™, Molecular Devices, Sunnyvale, Calif., USA). The percentage of hemolysis was calculated as the ratio of the absorbance in the derivative-treated and surfactant treated samples, corrected for the PBS background. Three independent experiments were performed and EC50 values are presented as averages."}, "A. baumanii K63-58": {"system": "A. baumanii K63-58", "assay": "MIC, multi-resistant clinical isolate", "type": "cell-based, Acinetobacter baumannii", "conditions": "A. baumanii K63-58, resistant to colistin", "protocol": "as §1, §2, §3"}, "A. baumanii K44-35": {"system": "A. baumanii K44-35", "assay": "MIC, multi-resistant clinical isolate", "type": "cell-based, Acinetobacter baumannii", "protocol": "as §1, §2, §3"}, "A. baumanii K47-42": {"system": "A. baumanii K47-42", "assay": "MIC, multi-resistant clinical isolate", "type": "cell-based, Acinetobacter baumannii", "protocol": "as §1, §2, §3"}, "A. baumanii K12-21": {"system": "A. baumanii K12-21", "assay": "MIC, multi-resistant clinical isolate", "type": "cell-based, Acinetobacter baumannii", "protocol": "as §1, §2, §3"}, "A. baumanii K55-13": {"system": "A. baumanii K55-13", "assay": "MIC, multi-resistant clinical isolate", "type": "cell-based, Acinetobacter baumannii", "protocol": "as §1, §2, §3"}, "E. coli 50739822": {"system": "E. coli 50739822", "assay": "MIC, multi-resistant clinical isolate", "type": "cell-based, Escherichia coli", "protocol": "as §1, §2, §3"}},
  "data": [
    {"compound": "N=C(N)NCCCCN1C(=O)N(CCCCNC(=N)N)C(=O)C(Cc2cc(Br)cc(Br)c2)(Cc2cc(Br)cc(Br)c2)C1=O", "note": "[8(ii), 1,1′-(4,4′-(5,5-bis(3,5-dibromobenzyl)-2,4,6-trioxodihydropyrimidine-1,3(2H,4H)-diyl)bis(butane-4,1-diyl))diguanidine]", "values": [
      {"measurement": "IC50", "setting": "S. epidermidis", "result": 1, "unit": "µg/mL"},
      {"measurement": "IC50", "setting": "[1]", "result": 2, "unit": "µg/mL"},
      {"measurement": "selectivity index (EC50/MIC)", "setting": "S. aureus IHT 99040; RBC EC50 / MIC", "result": "(28)"},
      {"measurement": "MIC", "setting": "S. aureus IHT 99040; Staphylococcus aureus, IHT99040, read-out: Antimicrobial activity (MIC)", "result": 2, "unit": "µg/mL"},
      {"measurement": "selectivity index (EC50/MIC)", "setting": "S. aureus N315; RBC EC50 / MIC, S. aureus N315", "result": "(28)"},
      {"measurement": "MIC", "setting": "S. aureus N315; Staphylococcus aureus, N315, read-out: Antimicrobial activity (MIC)", "result": 2, "unit": "µg/mL"},
      {"measurement": "selectivity index (EC50/MIC)", "setting": "S. aureus strain 85/2082; RBC EC50 / MIC, S. aureus strain 85/2082", "result": "(28)"},
      {"measurement": "MIC", "setting": "S. aureus strain 85/2082; Staphylococcus aureus, 85/2082, read-out: Antimicrobial activity (MIC)", "result": 2, "unit": "µg/mL"},
      {"measurement": "selectivity index (EC50/MIC)", "setting": "S. aureus strain WIS; RBC EC50 / MIC, S. aureus strain WIS", "result": "(28)"},
      {"measurement": "MIC", "setting": "S. aureus strain WIS; Staphylococcus aureus, read-out: Antimicrobial activity (MIC)", "result": 2, "unit": "µg/mL"},
      {"measurement": "selectivity index (EC50/MIC)", "setting": "S. aureus NCTC 10442; RBC EC50 / MIC, S. aureus NCTC 10442", "result": "(28)"},
      {"measurement": "MIC", "setting": "S. aureus NCTC 10442; Staphylococcus aureus, NCTC10442, read-out: Antimicrobial activity (MIC)", "result": 2, "unit": "µg/mL"},
      {"measurement": "EC50 at 1 h", "setting": "[2]", "result": 56, "unit": "µg/mL"},
      {"measurement": "MIC", "setting": "A. baumanii K63-58; Acinetobacter baumannii, K6358, 24 h, read-out: Antimicrobial activity (MIC)", "result": 4, "unit": "µg/mL"},
      {"measurement": "selectivity index (EC50/MIC)", "setting": "A. baumanii K63-58; RBC EC50 / MIC", "result": "(14)"},
      {"measurement": "MIC", "setting": "A. baumanii K44-35; Acinetobacter baumannii, K4435, read-out: Antimicrobial activity (MIC)", "result": 4, "unit": "µg/mL"},
      {"measurement": "selectivity index (EC50/MIC)", "setting": "A. baumanii K44-35; RBC EC50 / MIC", "result": "(14)"},
      {"measurement": "MIC", "setting": "A. baumanii K47-42; Acinetobacter baumannii, K4742, read-out: Antimicrobial activity (MIC)", "result": 4, "unit": "µg/mL"},
      {"measurement": "selectivity index (EC50/MIC)", "setting": "A. baumanii K47-42; RBC EC50 / MIC", "result": "(14)"},
      {"measurement": "MIC", "setting": "A. baumanii K12-21; Acinetobacter baumannii, K1221, read-out: Antimicrobial activity (MIC)", "result": 4, "unit": "µg/mL"},
      {"measurement": "selectivity index (EC50/MIC)", "setting": "A. baumanii K12-21; RBC EC50 / MIC", "result": "(14)"},
      {"measurement": "MIC", "setting": "A. baumanii K55-13; Acinetobacter baumannii, K5513, read-out: Antimicrobial activity (MIC)", "result": 8, "unit": "µg/mL"},
      {"measurement": "selectivity index (EC50/MIC)", "setting": "A. baumanii K55-13; RBC EC50 / MIC", "result": "(7)"},
      {"measurement": "MIC", "setting": "E. coli 50739822; Escherichia coli, read-out: Antimicrobial activity (MIC)", "result": 4, "unit": "µg/mL"},
      {"measurement": "selectivity index (EC50/MIC)", "setting": "E. coli 50739822; RBC EC50 / MIC", "result": "(14)"}
    ]}
  ]
}
